Measurements from US11535680B2, “Targeting metastasis stem cells through a fatty acid receptor (CD36)” (FUNDACIÓ INSTITUT DE RECERCA BIOMÈDICA (IRB BARCELONA), priority 2015, dated 2022).

Experiments:
OSCC cells = OSCC cells exposed in culture to palmitic acid, CD36+ cells by flow cytometry; assay type: cell-based, human; details: 2 days, 0.4 mM palmitic acid
Method: All cells were cultured in a humidified incubator at 37° C. with 5% CO2. SCC-25 (ATCC^R CRL-168™) and patient-derived cells (VDH-00, VDH-01 and VDH-02) were grown in keratinocyte serum-free media (KSFM, GIBCO) supplemented with 5 μg ml^−1 penicillin/streptomycin, 0.025 mg ml^−1 bovine pituitary extract and 0.2 μg ml^−1 of hEGF. JHU-029 cells (The Johns Hopkins University) were grown in RPMI (GIBCO) supplemented with 5 μg ml^−1 penicillin/streptomycin and 10% foetal bovine serum (FBS; GIBCO). FaDu (ATCC^R HTB-43™) and Detroit (ATCC^R CCL138™) cells were grown in EMEM (LONZA) supplemented with 5 μg ml^−1 penicillin/streptomycin and 10% FBS (GIBCO). MCF-7 cells (ATCC^r HTB-22™) were grown in EMEM (LONZA) supplemented with 5 mg ml^−1 penicillin/streptomycin, 0.01 mg ml^−1 human recombinant insulin and 10% FBS (GIBCO). The 501mel human cell line (kindly provided by Dr. Claudia Wellbrock, Manchester Cancer Research Centre, The University of Manchester, UK) was grown in DMEM supplemented with 5 mg ml^−1 penicillin/streptomycin and 10% FBS (GIBCO). HNACFS (Head and Neck tumour associated fibroblasts) were grown in DMEM supplemented with 5 mg ml^−1 penicillin/streptomycin, 10% FBS (GIBCO) and 1× insulin transferrin selenium G supplement (Invitrogen). OP9 cells were cultured and differentiated to adipocytes as previously described (Wolins et al., 2006). […]

SCC25 tumour cells = assay: Transplants of palmitic acid-treated OSCC cells; assay type: in vivo, mouse; details: cells treated in culture before transplant
Method: NOD scid gamma (NSG) (NOD.Cg-Prkdc^scid Il2rg^tm1Wjl/SzJ) mice were purchased from Charles River and crossed in-house. All mice were housed under a regimen of 12 h light/12 h dark cycles and SPF conditions, and all procedures were evaluated and approved by the CEEA (Ethical Committee for Animal Experimentation) from the Government of Catalunya. For establishing patient-derived tumour cells, tumours were implanted subcutaneously into NOD scid gamma mice immediately after tumour resection from the patient. Once the tumours had grown, they were collected, disaggregated, and tumour cells were FACS sorted and cultured as described below. For 5-bromo-2-deoxyuridine (BrdU) labelling experiments, mice were injected intraperitoneally with a single dose of 100 μg g^−1 BrdU (Invitrogen) and then analysed at 24 h. SCC intra-tongue injection was performed as previously described (Oskarsson et al., 2014; Nieman et al., 2011). Briefly, mice were anesthetized by intraperitoneal injection with a mixture of 50 mg per kg of ketamine and 0.5 mg per kg of medetomidin, and SCC cells resuspended in 30 μl PBS were injected into each mouse tongue with a BD ultra-fine 6 mm needle. For intravenous cell injection, mice were anesthetized with continuous administration of isofluorane gas and were injected by retro-orbital injection with 100,000 cells in 100 μl PBS. Mice were monitored for the luciferase bioluminescent signal immediately after injection (T0) and once weekly thereafter with a Xenogen IVIS Imaging System-100 (Caliper Life Sciences). Briefly, animals were injected by retro-orbital injection with 50 μl of D-luciferin (Promega) diluted in 1×PBS at 5 mg ml^−1. Continuous administration of isofluorane gas was provided to ensure anesthetizing animals during imaging. Data was quantified with the Living Image software version 4.4 (Caliper Life Sciences). Quantifications were calculated with unsaturated pixels. Color scale minimum and maximum values are shown in pictures.
All cells were cultured in a humidified incubator at 37° C. with 5% CO2. […]

OSCC cell lines = assay: shRNA-mediated CD36 depletion in orthotopic OSCC xenografts; assay type: in vivo, mouse; details: FaDu cells
Method: NOD scid gamma (NSG) (NOD.Cg-Prkdc^scid Il2rg^tm1Wjl/SzJ) mice were purchased from Charles River and crossed in-house. All mice were housed under a regimen of 12 h light/12 h dark cycles and SPF conditions, and all procedures were evaluated and approved by the CEEA (Ethical Committee for Animal Experimentation) from the Government of Catalunya. For establishing patient-derived tumour cells, tumours were implanted subcutaneously into NOD scid gamma mice immediately after tumour resection from the patient. Once the tumours had grown, they were collected, disaggregated, and tumour cells were FACS sorted and cultured as described below. For 5-bromo-2-deoxyuridine (BrdU) labelling experiments, mice were injected intraperitoneally with a single dose of 100 μg g^−1 BrdU (Invitrogen) and then analysed at 24 h. SCC intra-tongue injection was performed as previously described (Oskarsson et al., 2014; Nieman et al., 2011). […] Mice were monitored for the luciferase bioluminescent signal immediately after injection (T0) and once weekly thereafter with a Xenogen IVIS Imaging System-100 (Caliper Life Sciences). […] Data was quantified with the Living Image software version 4.4 (Caliper Life Sciences). Quantifications were calculated with unsaturated pixels. […]

| Compound | percentage of CD36+ cells in culture (OSCC cells) | inoculated mice with lung metastasis (SCC25 tumour cells) | primary tumour growth (SCC25 tumour cells) | size and frequency of the LN metastasis (SCC25 tumour cells) | lung metastasis (ability to colonize the lungs) (OSCC cell lines) |
| --- | --- | --- | --- | --- | --- |
| CCCCCCCCCCCCCCCC(=O)O [PA, palmitic acid] | robustly induced | 10% | without any effect | significantly boosted |  |
| shRNACD36 #99: lentiviral shRNA targeting CD36 (Sigma Aldrich), SEQ ID NO: 2 (CCGACGTTAATCTGAAAGGA) |  |  |  |  | absent |
